The SangsterLogP compilation

Assays:
[1] = method code SF, from DOI: 10.1007/bf01990207, PMID: 819289; conditions: pH 7.4
[2] = method code SF-AS, from DOI: 10.1007/bf01990207, PMID: 819289; conditions: pH 7.4

| Compound | logD [1] | logD [2] |
| --- | --- | --- |
| [N-]=[N+]=CC(=O)NCC(=O)NCCO | -1.35 | – |
| CCCCCCNC(=O)CNC(=O)C=[N+]=[N-] | – | 1.51 |
| CCOC(=O)CNC(=O)C=[N+]=[N-] | -0.08 | – |
| [N-]=[N+]=CC(=O)NCC(=O)NN | -0.76 | – |
| CNC(=O)CNC(=O)C=[N+]=[N-] | -0.87 | – |
| [N-]=[N+]=CC(=O)NCC(N)=O | -1.26 | – |
| CC(C)CNC(=O)CNC(=O)C=[N+]=[N-] | 0.37 | – |
| CC(C)NC(=O)CNC(=O)C=[N+]=[N-] | -0.41 | – |
| CCNC(=O)CNC(=O)C=[N+]=[N-] | -0.62 | – |
| CCCNC(=O)CNC(=O)C=[N+]=[N-] | -0.24 | – |
